Patent US20220218852A1, “NOVEL RADIOLABELLED CXCR4-TARGETING COMPOUNDS FOR DIAGNOSIS AND THERAPY” (PROVINCIAL HEALTH SERVICES AUTHORITY, priority 2019, published 2022)
Positions of bridges follow the written chain, without caps; N, C: chain ends. Non-standard residues stand in square brackets, D forms with d. Residues, ends and D or L forms follow the SMILES beside them. Groups on a side chain read outwards from the residue. *: point of attachment. DOTA = O=C(O)CN1CCN(CC(=O)O)CCN(CC(=O)*)CCN(CC(=O)O)CC1; 2Nal = N[C@@H](Cc1ccc2ccccc2c1)C(=O)O; Lys(iPr) = CC(C)NCCCC[C@H](N)C(=O)O

Experiments:
[1] = tested on: Z138 xenograft; test: Dosimetry, Human Extrapolated from Mouse Model, based on Z138 xenograft mice; format: in vivo; details: Lu-177, Z138 xenograft mice
Description: (§1) The multi-time-point organ uptake obtained from biodistribution data of ^177Lu-labeled analogs was decayed to their appropriate time-point, fitted to a mono-exponential or bi-exponential model (fit chosen based on R2 and residuals) in Python (version 3.7). The area under the curve was used to compute residence times which were multiplied by model organ mass for human (NURBS model) and mouse (25 g MOBY mouse phantom) for use in OLINDA/EXM software (Hermes Medical Solution; version 2.0) that calculated dosimetry for an average mouse (Stabin et al., J Nucl Med. 2005, 46:1023-1027; Keenan et al., J Nucl Med. 2010, 51:471-476) and extrapolated to an average human male (Segars et al., J Nucl Med. 2001, 42:7; Stabin et al., J Nucl Med. 2012, 53:1807-13).

[2] = tested on: GRANTA519 xenograft; test: Dosimetry, Human Extrapolated from Mouse Model, based on GRANTA519 xenograft mice; format: in vivo; details: Lu-177, GRANTA519 xenograft mice
Description: as §1

In the case of `CC(C)NCCCC[C@@H]1NC(=O)[C@H](Cc2ccc(O)cc2)NC(=O)[C@H](Cc2ccccc2)NC(=O)CC[C@H](C(=O)N[C@@H](CCCCNC(C)C)C(=O)N[C@@H](CCCCNC(=O)[C@H](CCC(=O)O)NC(=O)[C@H](CCC(=O)O)NC(=O)[C@H](CCC(=O)O)NC(=O)CN2CCN(CC(=O)O)CCN(CC(=O)O)CCN(CC(=O)O)CC2)C(N)=O)NC(=O)CNC(=O)[C@H](Cc2ccc3ccccc3c2)NC(=O)[C@@H](CCCNC(=N)N)NC1=O` [[^177Lu]Lu-BL02, metal not drawn] (FY[Lys(iPr)][dR][2Nal]G[dE][Lys(iPr)]K([Glu-Glu-Glu-DOTA])-NH2; lactam N-7), the “Absorbed Dose, Adrenals” value ([1]; Adrenals) is reported as 0.00413 mGy/MBq, the “Absorbed Dose, Brain” value ([1]; Brain) is reported as 4.5e−05 mGy/MBq and the “Absorbed Dose, Esophagus” value ([1]; Esophagus) is reported as 0.000564 mGy/MBq. For the same molecule, the “Absorbed Dose, Eyes” value ([1]; Eyes) was 0.000296 mGy/MBq, the “Absorbed Dose, Gallbladder Wall” value ([1]; Gallbladder Wall) was 0.000923 mGy/MBq and the “Absorbed Dose, Heart” value ([1]; Heart) was 0.00148 mGy/MBq. For the same molecule, the “Absorbed Dose, Kidneys” value ([1]; Kidneys) was 0.0332 mGy/MBq, the “Absorbed Dose, Left colon” value ([1]; Left colon) was 0.000755 mGy/MBq and the “Absorbed Dose, Liver” value ([1]; Liver) was 0.0183 mGy/MBq. For the same molecule, the “Absorbed Dose, Lungs” value ([1]; Lungs) was 0.0126 mGy/MBq, the “Absorbed Dose, Pancreas” value ([1]; Pancreas) was 0.00105 mGy/MBq and the “Absorbed Dose, Prostate” value ([1]; Prostate) was 0.000336 mGy/MBq. For the same molecule, the “Absorbed Dose, Rectum” value ([1]; Rectum) was 0.000473 mGy/MBq, the “Absorbed Dose, Red Marrow” value ([1]; Red Marrow) was 0.000377 mGy/MBq and the “Absorbed Dose, Remainder of the Body” value ([1]; Remainder of the Body) was 0.00117 mGy/MBq. For the same molecule, the “Absorbed Dose, Right colon” value ([1]; Right colon) was 0.000642 mGy/MBq, the “Absorbed Dose, Salivary Glands” value ([1]; Salivary Glands) was 0.00031 mGy/MBq and the “Absorbed Dose, Skeleton” value ([1]; Skeleton) was 0.000457 mGy/MBq. The “Absorbed Dose, Small Intestine” value ([1]; Small Intestine) was 0.000691 mGy/MBq, the “Absorbed Dose, Spleen” value ([1]; Spleen) was 0.0193 mGy/MBq and the “Absorbed Dose, Stomach Wall” value ([1]; Stomach Wall) was 0.000883 mGy/MBq. The “Absorbed Dose, Testes” value ([1]; Testes) was 0.00168 mGy/MBq, the “Absorbed Dose, Thymus” value ([1]; Thymus) was 0.000454 mGy/MBq and the “Absorbed Dose, Thyroid” value ([1]; Thyroid) was 0.000396 mGy/MBq. The “Absorbed Dose, Urin Blad” value ([1]; Urin Blad) was 0.00032 mGy/MBq, the “Absorbed Dose, Adrenals” value ([2]; Adrenals) was 0.00757 mGy/MBq and the “Absorbed Dose, Brain” value ([2]; Brain) was 7.33e−05 mGy/MBq. For the same molecule, the “Absorbed Dose, Esophagus” value ([2]; Esophagus) was 0.00043 mGy/MBq, the “Absorbed Dose, Eyes” value ([2]; Eyes) was 0.000245 mGy/MBq and the “Absorbed Dose, Gallbladder Wall” value ([2]; Gallbladder Wall) was 0.000863 mGy/MBq. For the same molecule, the “Absorbed Dose, Heart” value ([2]; Heart) was 0.00148 mGy/MBq, the “Absorbed Dose, Kidneys” value ([2]; Kidneys) was 0.0311 mGy/MBq and the “Absorbed Dose, Left colon” value ([2]; Left colon) was 0.00141 mGy/MBq. The “Absorbed Dose, Liver” value ([2]; Liver) was 0.0185 mGy/MBq, the “Absorbed Dose, Lungs” value ([2]; Lungs) was 0.00333 mGy/MBq and the “Absorbed Dose, Pancreas” value ([2]; Pancreas) was 0.000976 mGy/MBq. For the same molecule, the “Absorbed Dose, Prostate” value ([2]; Prostate) was 0.000284 mGy/MBq, the “Absorbed Dose, Rectum” value ([2]; Rectum) was 0.000761 mGy/MBq and the “Absorbed Dose, Red Marrow” value ([2]; Red Marrow) was 0.000343 mGy/MBq. The “Absorbed Dose, Remainder of the Body” value ([2]; Remainder of the Body) was 0.000952 mGy/MBq, the “Absorbed Dose, Right colon” value ([2]; Right colon) was 0.00095 mGy/MBq and the “Absorbed Dose, Salivary Glands” value ([2]; Salivary Glands) was 0.000254 mGy/MBq. The “Absorbed Dose, Skeleton” value ([2]; Skeleton) was 0.000444 mGy/MBq, the “Absorbed Dose, Small Intestine” value ([2]; Small Intestine) was 0.00131 mGy/MBq and the “Absorbed Dose, Spleen” value ([2]; Spleen) was 0.00859 mGy/MBq. For the same molecule, the “Absorbed Dose, Stomach Wall” value ([2]; Stomach Wall) was 0.000464 mGy/MBq, the “Absorbed Dose, Testes” value ([2]; Testes) was 0.00245 mGy/MBq and the “Absorbed Dose, Thymus” value ([2]; Thymus) was 0.000336 mGy/MBq. The “Absorbed Dose, Thyroid” value ([2]; Thyroid) was 0.00029 mGy/MBq and the “Absorbed Dose, Urin Blad” value ([2]; Urin Blad) was 0.000269 mGy/MBq.
